What was measured:
B1R of the rat = target: T1, B1R of the rat (Rattus norvegicus, UniProt P97583); assay: FLIPR Ca2+ functional assay, B1R antagonism, rat B1R in CHO K1 cells; type: cell-based; details: test substance 10 μM; rB1R CHO K1 cells; agonist Des-Arg9 bradykinin at EC80; % of maximum achievable inhibition
T1 construct: expressed in transfected cells; host or cells: CHO K1 cells (Chinese hamster ovary), stably transfected
T1 sequence (P97583 1-337): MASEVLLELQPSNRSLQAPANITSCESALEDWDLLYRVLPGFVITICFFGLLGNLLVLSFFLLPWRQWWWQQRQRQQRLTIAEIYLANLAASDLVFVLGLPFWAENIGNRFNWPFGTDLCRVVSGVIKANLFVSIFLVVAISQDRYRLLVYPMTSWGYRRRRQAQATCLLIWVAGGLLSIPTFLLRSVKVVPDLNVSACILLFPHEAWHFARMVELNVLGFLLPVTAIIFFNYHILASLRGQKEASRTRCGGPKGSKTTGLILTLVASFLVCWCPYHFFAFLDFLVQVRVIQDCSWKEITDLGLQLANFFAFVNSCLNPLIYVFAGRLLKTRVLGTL
In short: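 IC50 values come from varied compound concentrations applied 10-20 min before an EC80 agonist challenge, with Des-Arg9 bradykinin for rat and Lys-Des-Arg9 bradykinin for human receptor. Ca2+ influx in Fluo-4-loaded CHO K1 transfectants was measured by FLIPR peak fluorescence. Data are % inhibition vs maximum, n=2-3, N>=2.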

human B1R = target: T2, human B1R (Homo sapiens, UniProt P46663); assay: FLIPR Ca2+ functional assay, B1R antagonism, human B1R in CHO K1 cells; type: cell-based; details: test substance 10 μM; hB1R CHO K1 cells; agonist Lys-Des-Arg9 bradykinin at EC80; % of maximum achievable inhibition
T2 construct: expressed in transfected cells; host or cells: CHO K1 cells (Chinese hamster ovary), stably transfected
T2 sequence (P46663 1-353): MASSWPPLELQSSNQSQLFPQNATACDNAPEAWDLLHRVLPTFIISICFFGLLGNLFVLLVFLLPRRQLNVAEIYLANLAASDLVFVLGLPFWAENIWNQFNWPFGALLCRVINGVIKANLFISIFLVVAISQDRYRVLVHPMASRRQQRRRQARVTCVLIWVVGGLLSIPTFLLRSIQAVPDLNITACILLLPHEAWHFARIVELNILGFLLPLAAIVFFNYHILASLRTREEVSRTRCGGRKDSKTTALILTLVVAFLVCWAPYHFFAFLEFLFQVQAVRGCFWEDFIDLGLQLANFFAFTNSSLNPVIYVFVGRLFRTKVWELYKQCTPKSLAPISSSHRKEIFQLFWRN
Experimental: The agonistic or antagonistic action of substances on the bradykinin 1 receptor (B1R) of the human and rat species can be quantified with ectopically expressing cell lines (CHO K1 cells) and with the aid of a Ca^2+-sensitive dye (Fluo-4) using a fluorescent imaging plate reader (FLIPR). The value in % activation is based on the Ca^2+ signal after addition of Lys-Des-Arg^9 bradykinin (0.5 nM) or Des-Arg^9 bradykinin (100 nM). Antagonists lead to a suppression of the Ca^2+ influx following administration of the agonist. The % inhibition in comparison with the maximum achievable inhibition is indicated.
1. Functional Investigation on the Bradykinin 1 Receptor (B1R) The agonistic or antagonistic action of substances can be determined on the bradykinin 1 receptor (B1R) of the human and rat species with the following assay. According to this assay, the Ca^2+ inflow through the channel is quantified with the aid of a Ca^2+-sensitive dye (Fluo-4 type, Molecular Probes Europe BV, Leiden, Netherlands) in a fluorescent imaging plate reader (FLIPR, Molecular Devices, Sunnyvale, USA). 2. Method: Chinese hamster ovary cells (CHO K1 cells) which are stably transfected with the human B1R gene (hB1R cells) or the B1R gene of the rat (rB1R cells) are used. For functional investigations these cells are plated-out onto black 96-well plates with a clear base (BD Biosciences, Heidelberg, Germany or Greiner, Frickenhausen, Germany) in a density of 20,000-35,000 cells/well. Overnight the cells are incubated at 37° C. and 5% CO2 in culture medium (hB1R cells: Ham's Nutrient Mixture F12, Gibco Invitrogen GmbH, Karlsruhe, Germany or DMEM, Sigma-Aldrich, Taufkirchen, Germany; rB1R cells: D-MEM/F12, Gibco Invitrogen, Karlsruhe, Germany) with 10 vol. % FBS (foetal bovine serum, Gibco Invitrogen GmbH, Karlsruhe, Germany or PAN Biotech GmbH, Aidenbach, Germany).
On the following day the cells are loaded with 2.13 μM Fluo-4 (Molecular Probes Europe BV, Leiden, Netherlands) in HBSS buffer (Hank's buffered saline solution, Gibco Invitrogen GmbH, Karlsruhe, Germany) with 2.5 mM probenecid (Sigma-Aldrich, Taufkirchen, Germany) and 10 mM HEPES (Sigma-Aldrich, Taufkirchen, Germany) for 60 min at 37° C. The plates are subsequently washed twice with HBSS buffer, and HBSS buffer which additionally contains 0.1% BSA (bovine serum albumin; Sigma-Aldrich, Taufkirchen, Germany), 5.6 mM glucose and 0.05% gelatine (Merck KGaA, Darmstadt, Germany) is added. After a further incubation of 20 minutes at RT, the plates are inserted into the FLIPR for Ca^2+ measurement. Alternatively they are washed with buffer A (15 mM HEPES, 80 mM NaCl, 5 mM KCl, 1.2 mM CaCl2, 0.7 mM MgSO4, 2 g/l glucose, 2.5 mM probenecid) and loaded with buffer A with added 2.5 μM Fluo-4 and 0.025% Pluronic F127 (Sigma-Aldrich, Taufkirchen, Germany). The cells are then washed twice with buffer A and incubated for 30 minutes with buffer A, which additionally contains 0.05% BSA and 0.05% gelatine, at RT and then used for Ca^2+ measurement in the FLIPR. The Ca^2+-dependent fluorescence is measured here before and after addition of substances (λex=488 nm, λem=540 nm). The quantification is performed by measuring the highest fluorescence intensity (FC, fluorescence counts) over time.
The FLIPR protocol comprises two additions of substance. Test substances (10 μM) are first pipetted onto the cells and the Ca^2+ inflow is compared with the control (hB1R: Lys-Des-Arg^9 bradykinin >=50 nM; rB1R: Des-Arg^9 bradykinin 10 μM). The value in % activation based on the Ca^2+ signal after addition of Lys-Des-Arg^9 bradykinin (>=50 nM) or Des-Arg^9 bradykinin (10 μM) is obtained therefrom. After incubation for 10-20 minutes, Lys-Des-Arg^9 bradykinin (hB1R) or Des-Arg^9 bradykinin (rB1R) is applied in the EC80 concentration and the inflow of Ca^2+ is likewise determined.
Antagonists lead to a suppression of the Ca^2+ inflow. The % inhibition in comparison with the maximum achievable inhibition is calculated. […]

Row | inhibition at 10 µM (B1R of the rat) [%] | inhibition at 10 µM (human B1R) [%] | SMILES
1 | 104 | 100 | COc1ccc2cc(S(=O)(=O)N3CCn4cccc4C3CC(=O)NC3CCc4cc(CNC(C)(C)C)ccc4C3)ccc2c1 (stereo not drawn) [Example 31, N-(6-((tert-Butylamino)methyl)-1,2,3,4-tetrahydronaphthalen-2-yl)-2-(2-(6-methoxynaphthalen-2-ylsulfonyl)-1,2,3,4-tetrahydropyrrolo[1,2-a]-pyrazin-1-yl)acetamide]
2 | 65.5 | 8.84 | COc1cc(C)c(S(=O)(=O)N2CCn3cccc3C2COCC(=O)NC2CCN(c3ccc(C(F)(F)F)cn3)CC2)c(C)c1 (stereo not drawn) [Example 32, 2-[[2-[(4-Methoxy-2,6-dimethyl-phenyl)sulfonyl]-1,2,3,4-tetrahydro-pyrrolo[1,2-a]pyrazin-1-yl]-methoxy]-N-[1-[5-(trifluoromethyl)-pyridin-2-yl]-piperidin-4-yl]-acetamide]
3 | 58.1 | 15.7 | COc1cc(C)c(S(=O)(=O)N2CCn3cccc3C2COCC(=O)NC2CCN(c3ccc(C(F)(F)F)cn3)C2)c(C)c1 (stereo not drawn) [Example 33, 2-[[2-[(4-Methoxy-2,6-dimethyl-phenyl)sulfonyl]-1,2,3,4-tetrahydro-pyrrolo[1,2-a]pyrazin-1-yl]-methoxy]-N-[1-[5-(trifluoromethyl)-pyridin-2-yl]-pyrrolidin-3-yl]-acetamide]
4 | 103 | 99.2 | COc1cc(C)c(S(=O)(=O)N2CCn3cccc3C2COCC(=O)N2CCC(c3ccncc3)CC2)c(C)c1 (stereo not drawn) [Example 34, 2-[[2-[(4-Methoxy-2,6-dimethyl-phenyl)sulfonyl]-1,2,3,4-tetrahydro-pyrrolo[1,2-a]pyrazin-1-yl]-methoxy]-1-(4-pyridin-4-yl-piperidin-1-yl)-ethanone]
5 | 101 | 97.7 | COc1cc(C)c(S(=O)(=O)N2CCn3cccc3C2COCC(=O)N2CCC(Cc3ccncc3)CC2)c(C)c1 (stereo not drawn) [Example 35, 2-[[2-[(4-Methoxy-2,6-dimethyl-phenyl)sulfonyl]-1,2,3,4-tetrahydro-pyrrolo[1,2-a]pyrazin-1-yl]-methoxy]-1-[4-(pyridin-4-yl-methyl)-piperidin-1-yl]-ethanone]
6 | 103 | 97.5 | COc1cc(C)c(S(=O)(=O)N2CCn3cccc3C2COCC(=O)NC2CCN(c3ccncc3)CC2)c(C)c1 (stereo not drawn) [Example 36, 2-[[2-[(4-Methoxy-2,6-dimethyl-phenyl)sulfonyl]-1,2,3,4-tetrahydro-pyrrolo[1,2-a]pyrazin-1-yl]-methoxy]-N-(1-pyridin-4-yl-piperidin-4-yl)-acetamide]
7 | 104 | 97.8 | COc1cc(C)c(S(=O)(=O)N2CCn3cccc3C2COCC(=O)N2CCC(CN3CCN(C)CC3)C2)c(C)c1 (stereo not drawn) [Example 37, 2-[[2-[(4-Methoxy-2,6-dimethyl-phenyl)sulfonyl]-1,2,3,4-tetrahydro-pyrrolo[1,2-a]pyrazin-1-yl]-methoxy]-1-[3-[(4-methyl-piperazin-1-yl)-methyl]-pyrrolidin-1-yl]-ethanone]
8 | 104 | 98.1 | COc1cc(C)c(S(=O)(=O)N2CCn3cccc3C2COCC(=O)N2CCC(Oc3ccncc3)C2)c(C)c1 (stereo not drawn) [Example 38, 2-[[2-[(4-Methoxy-2,6-dimethyl-phenyl)sulfonyl]-1,2,3,4-tetrahydro-pyrrolo[1,2-a]pyrazin-1-yl]-methoxy]-1-(3-pyridin-4-yloxy-pyrrolidin-1-yl)-ethanone]
9 | 105 | 99.6 | COc1cc(C)c(S(=O)(=O)N2CCn3cccc3C2COCC(=O)N(C)C2CCN(c3ccncc3)CC2)c(C)c1 (stereo not drawn) [Example 39, 2-[[2-[(4-Methoxy-2,6-dimethyl-phenyl)sulfonyl]-1,2,3,4-tetrahydro-pyrrolo[1,2-a]pyrazin-1-yl]-methoxy]-N-methyl-N-(1-pyridin-4-yl-piperidin-4-yl)-acetamide]
